Test [1] relates to E. coli NCTC 13441 (UPEC). In words: MIC broth microdilution. Type of test: cell-based, Escherichia coli. As to conditions: Escherichia coli, NCTC13441. As for the experimental part:
(§1) Minimum Inhibitory Concentrations (MICs) versus planktonic bacteria are determined by the broth microdilution procedure according to the guidelines of the Clinical and Laboratory Standards Institute (Clinical and Laboratory Standards Institute. Methods for Dilution Antimicrobial Susceptibility Tests for Bacteria That Grow Aerobically; Approved Standard-tenth Edition. CLSI document M07-A10, 2015). The broth dilution method involves a two-fold serial dilution of compounds in 96-well microtitre plates, giving a final concentration range of 0.39-200 μM and a maximum final concentration of 2% DMSO. The bacterial strains tested include Escherichia coli K12 (EC), E. coli NCTC 13441 (UPEC), Staphylococcus aureus ATCC 35556 (SA), Acinetobacter baumannii ATCC 17978 (AB), Pseudomonas aeruginosa ATCC 33359 (PA), Enterobacter cloacae DSM 30054 (Ed), Serratia marcescens SL1344 (Sm), Salmonella typhimurium XNAA5 (St), Klebsiella pneumoniae ATCC 10031 (KP2), K. pneumoniae NCTC 13438 (KP1), K. pneumoniae ATCC 700603 (KP3), Klebsiella pneumoniae ATCC 51504 (KP4), K. pneumoniae H154680676 (KP5), K. pneumoniae H154020667 (KP6), K. pneumoniae H154640784 (KP7), K. pneumoniae H154600588 (KP8), K. pneumoniae H154300688 (KP9), K. pneumoniae H151440671 (KP10). Strains are grown in cation-adjusted Müller-Hinton broth or on Luria Bertoni agar at 37° C. in an ambient atmosphere. The MIC is determined as the lowest concentration of compound that inhibits growth following a 20-24 hour incubation period.
On the technique in general: Broth dilution looks for growth in wells or tubes with falling amounts of substance.

In test [2] the test system is Acinetobacter baumannii ATCC 17978 (AB). In words: MIC broth microdilution. Type of test: cell-based. As to conditions: ATCC17978. As for the experimental part:
as §1

For test [3], the system named is Escherichia coli K12 (EC). In words: MIC broth microdilution. Type of test: cell-based. As for the experimental part: as §1
In test [4] the test system is Klebsiella pneumoniae ATCC 10031 (KP2). Put plainly: MIC broth microdilution. Type of test: cell-based. Particulars: ATCC10031. As for the experimental part: as §1
The subject of test [5] is Pseudomonas aeruginosa ATCC 33359 (PA). Put plainly: MIC broth microdilution. Type of test: cell-based. Particulars: ATCC33359. As for the experimental part: as §1
In test [6] the test system is Staphylococcus aureus ATCC 35556 (SA). Put plainly: MIC broth microdilution. Type of test: cell-based. As to conditions: ATCC35556. As for the experimental part:
as §1

The subject of test [7] is K. pneumoniae NCTC 13438 (KP1). Put plainly: MIC broth microdilution. Particulars: Klebsiella pneumoniae, NCTC13438. Type of test: cell-based, Klebsiella pneumoniae. As for the experimental part:
as §1

Test [8] concerns human hepatocarcinoma cell line ATCC HB-8065 (HepG2). In words: Human cell viability (CellTiter-Glo). Type of test: cell-based. Particulars: Homo sapiens; HepG2 cells, 24 h incubation, CellTiter-Glo luminescence, 0.2-100 μM; read-out: IC50 values against the HepG2 cell line. As for the experimental part:
Compounds are assessed for potential non-specific cytotoxic effects against the human hepatocarcinoma cell line ATCC HB-8065 (HepG2). HepG2 cells are seeded at 20,000 cells/well in 96-well microtitre plates in minimal essential medium (MEM) supplemented with a final concentration of 10% FBS. After 24 h, compound dilutions are prepared in MEM supplemented with a final concentration of 1% FBS, and added to the cells. Compounds are tested in two-fold serial dilutions over a final concentration range of 0.2-100 μM in a final DMSO concentration of 1% vol/vol. Thioridazine is used as a positive control. Cells are incubated with compound at 37° C. and 5% CO2 for a further 24 h, after which time the CellTiter-Glo reagent (Promega) is added. Luminescence is measured on a Perkin Elmer Envision plate reader. Data are analysed using a 4 parameter logistic regression to determine the concentration of compound that inhibits cell viability by fifty percent (IC50).
(In general: ATP-based viability assays read luminescence as a measure of living cells.)

Data on 15 compounds can be found in patent US11345694B2, “Antibacterial compounds” (DISCUVA LTD., priority 2017, dated 2022).

In brackets after ≈: the same amount, converted by molar mass.

Broadly, the MIC is the lowest concentration that inhibits growth of the organism. For orientation: IC50 means the midpoint of a concentration-inhibition curve. On to `Cc1cc(-c2[nH]c(N)nc2-c2ccc3c(c2)CC(C)O3)ccn1` (racemic) [Example 41, 4-(2-Methyl-2,3-dihydrobenzofuran-5-yl)-5-(2-methylpyridin-4-yl)-1H-imidazol-2-amine], for which the MIC in test [1] is at most 1 µM; in test [2] it was above 100 µM; in test [3], at most 1 µM; in test [4], at most 1 µM; in test [5], above 100 µM; in test [6] it was above 100 µM. The same compound returned an MIC in test [7] of 1 to 10 µM (≈ 0.306 to 3.06 µg/mL). For the same compound, the IC50 in test [8] was above 100 µM.
In the case of `Cc1cc(-c2[nH]c(CN)nc2-c2ccc3c(c2)NCCO3)ccn1` [Compound 88], the MIC in test [1] was 1 to 10 µM (≈ 0.321 to 3.21 µg/mL); in test [2] it was above 100 µM; in test [3], 1 to 10 µM (≈ 0.321 to 3.21 µg/mL); in test [4], at most 1 µM; in test [5], above 100 µM; in test [6], above 100 µM. The MIC in test [7] lay within 10 to 100 µM (≈ 3.21 to 32.1 µg/mL). The IC50 in test [8] was above 100 µM.
Take `COc1ccc(-c2[nH]c(N)nc2-c2ccnc(C)c2)cc1OC` [Example 1, 5-(3,4-Dimethoxyphenyl)-4-(2-methylpyridin-4-yl)-1H-imidazol-2-amine]: the MIC in test [1] is 10 to 100 µM (≈ 3.1 to 31 µg/mL); in test [2], above 100 µM; in test [3], 10 to 100 µM (≈ 3.1 to 31 µg/mL); in test [4], at most 1 µM; in test [5] it was above 100 µM; in test [6], above 100 µM. Besides, the MIC in test [7] was above 100 µM. The IC50 in test [8] is above 100 µM.
For the compound `Nc1nc(-c2ccc3c(c2)OCCO3)c(-c2cccnc2)[nH]1` [Example 22, 4-(2,3-Dihydrobenzo[b][1,4]dioxin-6-yl)-5-(pyridin-3-yl)-1H-imidazol-2-amine], the MIC in test [1] is above 100 µM; in test [2], above 100 µM; in test [3], above 100 µM; in test [4], 1 to 10 µM (≈ 0.294 to 2.94 µg/mL); in test [5], above 100 µM; in test [6] it was above 100 µM. Besides, in test [7], the MIC is above 100 µM.
`Nc1nc(-c2ccncn2)c(-c2ccc3c(c2)OCCO3)[nH]1` [Example 30]: the MIC was 10 to 100 µM (≈ 2.95 to 29.5 µg/mL) in test [1]; above 100 µM in test [2]; 10 to 100 µM (≈ 2.95 to 29.5 µg/mL) in test [3]; 1 to 10 µM (≈ 0.295 to 2.95 µg/mL) in test [4]; above 100 µM in test [5]; above 100 µM in test [6]. This compound also yielded an MIC in test [7] above 100 µM.
`Cc1cc(-c2[nH]c(N)nc2-c2ccc3c(c2)N(CC2CC2)C(=O)CO3)ccn1` [Example 67, 6-(2-Amino-4-(2-methylpyridin-4-yl)-1H-imidazol-5-yl)-4-(cyclopropylmethyl)-2H-benzo[b][1,4]oxazin-3(4H)-one]: the MIC in test [1] is 1 to 10 µM (≈ 0.375 to 3.75 µg/mL); in test [2], above 100 µM; in test [3] it was 1 to 10 µM (≈ 0.375 to 3.75 µg/mL); in test [4] it was at most 1 µM; in test [5], above 100 µM; in test [6], above 100 µM. The compound also yielded an MIC in test [7] of 10 to 100 µM (≈ 3.75 to 37.5 µg/mL).
With `Cc1cc(-c2[nH]c(N)nc2-c2ccc3c(c2)N(C(C)C)C(=O)CO3)ccn1` [Example 68, 6-(2-Amino-4-(2-methylpyridin-4-yl)-1H-imidazol-5-yl)-4-isopropyl-2H-benzo[b][1,4]oxazin-3(4H)-one], the MIC in test [1] is 1 to 10 µM (≈ 0.363 to 3.63 µg/mL); in test [2] it was above 100 µM; in test [3], 1 to 10 µM (≈ 0.363 to 3.63 µg/mL); in test [4], at most 1 µM; in test [5], above 100 µM; in test [6], above 100 µM. In addition, the MIC in test [7] is 10 to 100 µM (≈ 3.63 to 36.3 µg/mL).
As to `Cc1cc(-c2[nH]c(N)nc2-c2ccc3c(c2)N(C2CCCC2)C(=O)CO3)ccn1` [Example 69, 6-(2-Amino-4-(2-methylpyridin-4-yl)-1H-imidazol-5-yl)-4-cyclopentyl-2H-benzo[b][1,4]oxazin-3(4H)-one], the MIC in test [1] is 1 to 10 µM (≈ 0.389 to 3.89 µg/mL); in test [2], above 100 µM; in test [3], 1 to 10 µM (≈ 0.389 to 3.89 µg/mL); in test [4] it was at most 1 µM; in test [5], above 100 µM; in test [6], above 100 µM. The same compound returned an MIC in test [7] of 10 to 100 µM (≈ 3.89 to 38.9 µg/mL).
In the case of `Cc1cc(-c2nc(N)[nH]c2-c2ccc3c(c2)N(CCOCCO)C(=O)CO3)ccn1` [Example 70, 6-(2-Amino-4-(2-methylpyridin-4-yl)-1H-imidazol-5-yl)-4-(2-(2-hydroxyethoxy)ethyl)-2H-benzo[b][1,4]oxazin-3(4H)-one], the MIC in test [1] was 1 to 10 µM (≈ 0.409 to 4.09 µg/mL); in test [2], above 100 µM; in test [3] it was 1 to 10 µM (≈ 0.409 to 4.09 µg/mL); in test [4], at most 1 µM; in test [5], above 100 µM; in test [6], above 100 µM. The compound also displayed an MIC in test [7] of 10 to 100 µM (≈ 4.09 to 40.9 µg/mL).
For the compound `CC(=O)Nc1nc(-c2ccc3c(c2)OCCO3)c(-c2ccnc(C)c2)[nH]1` [Example 72, N-(4-(2,3-Dihydrobenzo[b][1,4]dioxin-6-yl)-5-(2-methylpyridin-4-yl)-1H-imidazol-2-yl)acetamide], the MIC is above 100 µM in test [1]; above 100 µM in test [2]; above 100 µM in test [3]; 1 to 10 µM (≈ 0.35 to 3.5 µg/mL) in test [4]; above 100 µM in test [5]; above 100 µM in test [6]. In test [7], the MIC was above 100 µM.
For `Cc1cc(-c2c(-c3ccc4c(c3)OCCO4)nc(N)n2C)ccn1` [Example 73, 4-(2,3-dihydrobenzo[b][1,4]dioxin-6-yl)-1-methyl-5-(2-methylpyridin-4-yl)-1H-imidazol-2-amine], the MIC in test [1], in test [2], in test [3], in test [4], in test [5] and in test [6] was above 100 µM throughout. This compound came in with an MIC in test [7] above 100 µM.
As to `CNc1nc(-c2ccc3c(c2)NCCO3)c(-c2ccnc(C)c2)[nH]1` [Example 78, 4-(3,4-Dihydro-2H-benzo[b][1,4]oxazin-6-yl)-N-methyl-5-(2-methylpyridin-4-yl)-1H-imidazol-2-amine], the MIC is 1 to 10 µM (≈ 0.321 to 3.21 µg/mL) in test [1]; above 100 µM in test [2]; 1 to 10 µM (≈ 0.321 to 3.21 µg/mL) in test [3]; at most 1 µM in test [4]; above 100 µM in test [5]; above 100 µM in test [6]. In addition, the MIC in test [7] lay within 10 to 100 µM (≈ 3.21 to 32.1 µg/mL).
In the case of `Cc1cc(-c2[nH]c(N(C)C)nc2-c2ccc3c(c2)NCCO3)ccn1` [Example 79, 4-(3,4-Dihydro-2H-benzo[b][1,4]oxazin-6-yl)-N,N-dimethyl-5-(2-methylpyridin-4-yl)-1H-imidazol-2-amine], the MIC is 1 to 10 µM (≈ 0.335 to 3.35 µg/mL) in test [1]; above 100 µM in test [2]; 10 to 100 µM (≈ 3.35 to 33.5 µg/mL) in test [3]; 1 to 10 µM (≈ 0.335 to 3.35 µg/mL) in test [4]; above 100 µM in test [5]; above 100 µM in test [6]. In test [7], this compound gave an MIC above 100 µM.
On to `Cc1cc(-c2[nH]c(=O)[nH]c2-c2ccc3c(c2)OCCO3)ccn1` [Example 82, 4-(2,3-Dihydrobenzo[b][1,4]dioxin-6-yl)-5-(2-methylpyridin-4-yl)-1,3-dihydro-2H-imidazol-2-one], for which the minimal inhibitory concentration (MIC) in test [1] was 10 to 100 µM (≈ 3.09 to 30.9 µg/mL); in test [2], above 100 µM; in test [3], 10 to 100 µM (≈ 3.09 to 30.9 µg/mL); in test [4], at most 1 µM; in test [5], above 100 µM; in test [6] it was above 100 µM. The MIC in test [7] was above 100 µM.
As to `Cc1cc(-c2[nH]c(N)nc2-c2ccc3c(c2)N(CCOCCO)CCO3)ccn1` [Example 95, 2-(2-(6-(2-Amino-5-(2-methylpyridin-4-yl)-1H-imidazol-4-y1)-2,3-dihydro-4H-benzo[b][1,4]oxazin-4-yl)ethoxy)ethan-1-ol], the MIC in test [1] was 1 to 10 µM (≈ 0.395 to 3.95 µg/mL); in test [2] it was above 100 µM; in test [3], 1 to 10 µM (≈ 0.395 to 3.95 µg/mL); in test [4] it was at most 1 µM; in test [5] it was above 100 µM; in test [6] it was above 100 µM. For the same compound, the MIC in test [7] lay in the range of 10 to 100 µM (≈ 3.95 to 39.5 µg/mL).
